This experiment has as its target T1, P70S6K (Homo sapiens, UniProt P23443, T412E).
T1 construct: purchased Millipore
The experiment can be described thus: P70S6K enzyme assay. Type of experiment: biochemical. Conditions: P70S6K T412E mutant 3 nM, 24 μM ATP, FITC-AHA-AKRRRLSSLRA-OH substrate, 90 min at 25° C.; read-out: IC50p70S6K. As for the experimental part:
P70S6K inhibitor compounds are diluted and plated in 96 well plates. A reaction mixture including the following components is then added to the compound plate to initiate the enzyme reaction; P70S6K (3 nM, T412E mutant, Millipore) is mixed with 24 μM ATP in an assay buffer containing 100 mM Hepes (pH 7.5), 5 mM MgCl2, 1 mM DTT, 0.015% Brij and 1 μM of the substrate peptide FITC-AHA-AKRRRLSSLRA-OH (derived from the S6 ribosomal protein sequence, FITC=fluorescein isothiocyanate, AHA=6-aminohexanoic acid). The reaction is incubated for 90 min at 25° C., before the addition of 10 mM EDTA to stop the reaction. The proportion of substrate and product (phosphorylated) peptide is analyzed on a Caliper Life Sciences Lab Chip 3000, using a pressure of −1.4 psi, and upstream and downstream voltages of −3000 and −700 respectively. Product peaks are resolved before substrate peaks on the resulting chromatograms.
To assess the inhibitory potential of the compounds, IC50-values were determined, as shown in Chemical Synthesis section above.

47 compounds from US10087166B2, “Cyclic amine azaheterocyclic carboxamides” (Merck Patent GmbH, priority 2010, dated 2018) can be followed below.

SMILES strings stand for the structures.

T1 sequence (P23443 whole entry T412E): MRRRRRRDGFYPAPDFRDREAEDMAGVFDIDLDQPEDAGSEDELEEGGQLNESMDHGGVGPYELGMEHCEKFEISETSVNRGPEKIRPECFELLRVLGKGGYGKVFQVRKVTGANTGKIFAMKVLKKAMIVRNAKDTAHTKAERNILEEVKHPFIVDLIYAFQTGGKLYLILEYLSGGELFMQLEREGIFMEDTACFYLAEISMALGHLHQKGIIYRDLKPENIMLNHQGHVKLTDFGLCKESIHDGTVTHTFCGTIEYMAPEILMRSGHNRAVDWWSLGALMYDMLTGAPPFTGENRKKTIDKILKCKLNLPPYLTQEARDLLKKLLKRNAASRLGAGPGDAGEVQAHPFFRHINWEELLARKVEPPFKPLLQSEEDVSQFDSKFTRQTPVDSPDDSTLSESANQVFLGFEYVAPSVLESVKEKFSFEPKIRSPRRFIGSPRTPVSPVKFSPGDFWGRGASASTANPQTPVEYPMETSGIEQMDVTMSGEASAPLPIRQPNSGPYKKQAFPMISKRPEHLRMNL

In the case of `NC(=O)c1cccc2c(N[C@H]3CNC[C@@H]3c3cccc(F)c3)ncnc12` (racemic) [compound 2, 4-((4-(3-fluorophenyl)pyrrolidin-3-yl)amino)quinazoline-8-carboxamide], the IC50 turned out to be 3 nM.
For `NC(=O)c1cccc2c(N[C@H]3CNC[C@@H]3c3ccccc3)ncnc12` (racemic) [compound 3, 4-((4-phenylpyrrolidin-3-yl)amino)quinazoline-8-carboxamide], the IC50 is 4.9 nM.
Next, `NC(=O)c1cccc2c(NC3CNCC3c3cccc(Cl)c3)ncnc12` (racemic) [compound 9, 4-((4-(3-chlorophenyl)pyrrolidin-3-yl)amino)quinazoline-8-carboxamide]: 1.3 nM; `NC(=O)c1cccc2c(NC3CNCC3c3c(F)cccc3Cl)ncnc12` (racemic) [compound 10, 4-((4-(2-chloro-6-fluorophenyl)pyrrolidin-3-yl)amino)-quinazoline-8-carboxamide]: 7 nM.
The same measure for `CN1CC(Nc2ncnc3c(C(N)=O)cccc23)C(c2cccc(F)c2)C1` (racemic) [compound 12, 4-((4-(3-fluorophenyl)-1-methylpyrrolidin-3-yl)amino)quinazoline-8-carboxamide]: 23 nM.
In the case of `Cc1cc(C(N)=O)c2ncnc(NC3CNCC3c3ccccc3)c2c1` (racemic) [compound 15, 6-methyl-4-((4-phenylpyrrolidin-3-yl)amino)quinazoline-8-carboxamide], the IC50 came out at 349 nM.
Next, `Cc1nc(NC2CNCC2c2ccccc2)c2cccc(C(N)=O)c2n1` (racemic) [compound 16, 2-methyl-4-((4-phenylpyrrolidin-3-yl)amino)quinazoline-8-carboxamide]: 6 nM; `NC(=O)c1cccc2c(N[C@@H]3CNCC[C@H]3c3ccccc3)ncnc12` (racemic) [compound 27, 4-((4-phenylpiperidin-3-yl)amino)quinazoline-8-carboxamide]: 6.3 nM; `NC(=O)c1cccc2c(N[C@@H]3CNCC[C@H]3c3cccc(F)c3)ncnc12` (racemic) [compound 28, 4-((4-(3-fluorophenyl)piperidin-3-yl)amino)quinazoline-8-carboxamide]: 1.8 nM.
The same measure for `NC(=O)c1cccc2c(N[C@@H]3CNCC[C@H]3c3cccc(C(F)(F)F)c3)ncnc12` (racemic) [compound 30, 4-((4-(3-(trifluoromethyl)phenyl)piperidin-3-yl)amino)quinazoline-8-carboxamide]: 2.1 nM.
With `Cc1cccc([C@@H]2CCNC[C@H]2Nc2ncnc3c(C(N)=O)cccc23)c1` (racemic) [compound 31, 4-((4-(m-tolyl)piperidin-3-yl)amino)quinazoline-8-carboxamide], the IC50 amounted to 3.1 nM.
With `NC(=O)c1cccc2c(N[C@@H]3CNCC[C@H]3c3ccc(F)cc3)ncnc12` (racemic) [compound 32, 4-((4-(4-fluorophenyl)piperidin-3-yl)amino)quinazoline-8-carboxamide], the IC50 is 3.2 nM.
The same measure for `Cc1ccc(C2CCN(C(=O)OCc3ccccc3)CC2Nc2ncnc3c(C(N)=O)cccc23)cc1F` (racemic) [compound 35, Benzyl 3-((8-carbamoylquinazolin-4-yl)amino)-4-(3-fluoro-4-methylphenyl)piperidine-1-carboxylate]: 1000 nM.
As to `Cc1nc(N[C@@H]2CNCC[C@H]2c2cccc(F)c2)c2cccc(C(N)=O)c2n1` (racemic) [compound 37, 4-((4-(3-fluorophenyl)piperidin-3-yl)amino)-2-methylquinazoline-8-carboxamide], the IC50 worked out at 2.5 nM.
Next, `CCc1nc(N[C@@H]2CNCC[C@H]2c2cccc(F)c2)c2cccc(C(N)=O)c2n1` (racemic) [compound 38, 2-ethyl-4-((4-(3-fluorophenyl)piperidin-3-yl)amino)quinazoline-8-carboxamide]: 1.7 nM.
Next, `CCc1nc(N[C@@H]2CNCC[C@H]2c2ccccc2)c2cccc(C(N)=O)c2n1` (racemic) [compound 39, 2-ethyl-4-((4-phenylpiperidin-3-yl)amino)quinazoline-8-carboxamide]: 4.8 nM; `Cc1nc(N[C@@H]2CNCC[C@H]2c2ccccc2)c2cccc(C(N)=O)c2n1` (racemic) [compound 40, 2-methyl-4-((4-phenylpiperidin-3-yl)amino)quinazoline-8-carboxamide]: 6.4 nM; `NC(=O)c1cccc2c(N[C@H]3CNC[C@@H]3c3cc(F)cc(C(F)(F)F)c3)ncnc12` (racemic) [compound 45]: 1.9 nM.
Next, `NC(=O)c1cccc2c(N[C@H]3CNC[C@@H]3c3cccc(C(F)(F)F)c3)ncnc12` (racemic) [compound 48]: 1.7 nM; `NC(=O)c1cccc2c(N[C@H]3CNC[C@@H]3c3ccc(C(F)(F)F)cc3)ncnc12` (racemic) [compound 52]: 6.5 nM.
For `NC(=O)c1cccc2c(N[C@@H]3CNC[C@@H]3c3cccc(OC(F)(F)F)c3)ncnc12` (racemic) [compound 55], the IC50 was found to be 9 nM.
Next, `NC(=O)c1cccc2c(N[C@H]3CNC[C@@H]3c3cccc(OC(F)(F)F)c3)ncnc12` (racemic) [compound 56]: 2.4 nM; `NC(=O)c1cccc2c(N[C@H]3CNC[C@@H]3c3ccc(OC(F)(F)F)cc3)ncnc12` (racemic) [compound 59]: 1.7 nM; `NC(=O)c1cccc2c(N[C@H]3CNC[C@@H]3c3ccc4ncccc4c3)ncnc12` (racemic) [compound 69]: 3.2 nM.
Take `Cc1cc([C@H]2CNC[C@@H]2Nc2ncnc3c(C(N)=O)cccc23)ccc1F` (racemic) [compound 74]: the IC50 is 8.8 nM.
Take `NC(=O)c1cccc2c(N[C@H]3CNC[C@@H]3c3cccc(Br)c3)ncnc12` (racemic) [compound 85]: the IC50 stood at 1.8 nM.
Next, `N#Cc1cccc([C@@H]2CNC[C@@H]2Nc2ncnc3c(C(N)=O)cccc23)c1` (racemic) [compound 86]: 14 nM.
The same measure for `NC(=O)c1cccc2c(N[C@H]3CNC[C@@H]3c3ccc4c(c3)CCO4)ncnc12` (racemic) [compound 89]: 3.2 nM; for `Cc1c(F)cccc1[C@H]1CNC[C@@H]1Nc1ncnc2c(C(N)=O)cccc12` (racemic) [compound 92]: 2 nM.
The same measure for `Cc1nc(N[C@H]2CNC[C@@H]2c2ccccc2Cl)c2cccc(C(N)=O)c2n1` (racemic) [compound 98]: 2.7 nM; for `NC(=O)c1cccc2c(N[C@H]3CNC[C@@H]3c3ccc(Cl)c(F)c3)ncnc12` (racemic) [compound 99]: 0.088 nM; for `NC(=O)c1cccc2c(N[C@H]3CNC[C@@H]3c3ccc(F)c(Cl)c3)ncnc12` (racemic) [compound 100]: 1.4 nM.
For the compound `COc1ccc([C@H]2CNC[C@@H]2Nc2ncnc3c(C(N)=O)cccc23)cc1F` (racemic) [compound 102], the IC50 stood at 2.9 nM.
The same measure for `Cc1nc(N[C@H]2CNC[C@@H]2c2ccc(Cl)c(F)c2)c2cccc(C(N)=O)c2n1` (racemic) [compound 103]: 1.8 nM; for `NC(=O)c1cccc2c(N[C@H]3CNC[C@@H]3c3cc(F)c(F)cc3F)ncnc12` (racemic) [compound 105, 4-(((3R,4S)-4-(2,4,5-trifluorophenyl)pyrrolidin-3-yl)amino)quinazoline-8-carboxamide]: 420 nM; for `CCc1nc(N[C@@H]2CNC[C@H]2c2cccc(F)c2)c2cccc(C(N)=O)c2n1` (racemic) [compound 107]: 5.5 nM.
Next, `NC(=O)c1cccc2c(N[C@@H]3CNC[C@H]3c3cccc(Cl)c3F)ncnc12` (racemic) [compound 109]: 2.1 nM; `NC(=O)c1cccc2c(N[C@H]3CNC[C@@H]3c3ccc4ccccc4c3)ncnc12` (racemic) [compound 110]: 1.54 nM.
Next, `CS(=O)(=O)c1ccc([C@H]2CNC[C@@H]2Nc2ncnc3c(C(N)=O)cccc23)cc1` (racemic) [compound 111]: 7.5 nM.
On to `NC(=O)c1cccc2c(N[C@H]3CNC[C@@H]3c3cc(F)cc(Cl)c3)ncnc12` (racemic) [compound 114], for which the IC50 came out at 1.5 nM.
The same measure for `NC(=O)c1cccc2c(N[C@H]3CNC[C@@H]3c3cccc(F)c3F)ncnc12` (racemic) [compound 116]: 4.1 nM; for `NC(=O)c1cccc2c(N[C@H]3CNC[C@@H]3c3cccc(N4CCCC4)c3)ncnc12` (racemic) [compound 117, 4-(((3R,4S)-4-(3-(pyrrolidin-1-yl)phenyl)pyrrolidin-3-yl)amino)quinazoline-8-carboxamide]: 5.9 nM.
On to `NC(=O)c1cccc2c(N[C@H]3CNC[C@@H]3c3ccc(F)c(-c4cccnc4)c3)ncnc12` (racemic) [compound 119], for which the IC50 came out at 15 nM.
The same measure for `NC(=O)c1cccc2c(N[C@H]3CNC[C@@H]3c3ccc(-c4ccccc4)c(F)c3)ncnc12` (racemic) [compound 120]: 1.4 nM.
The same measure for `NC(=O)c1cccc2c(N[C@H]3CNC[C@@H]3c3ccc(-c4cccnc4)c(F)c3)ncnc12` (racemic) [compound 121]: 6 nM.
As for `NC(=O)c1cccc2c(N[C@@H]3CNCC[C@H]3c3cc(F)cc(F)c3)ncnc12` (racemic) [compound 123], the IC50 worked out at 2.3 nM.
Next, `CN1CC[C@@H](c2ccccc2)[C@H](Nc2ncnc3c(C(N)=O)cccc23)C1` (racemic) [compound 124]: 22 nM.
